According to patent publication US11135252B2, “Probiotic therapies for developmental disorders and other neurological disorders” (Baylor College of Medicine, priority 2016, dated 2021):
“Also recorded” adds a separate entry of the source.

Key:
MHFD offspring = test: Reciprocal social interaction test in MHFD offspring; format: in vivo, mice
Source text: Animal care and experimental procedures were approved by Baylor College of Medicine's Institutional Animal Care and Use Committee in accordance with all guidelines set forth by the U.S. National Institutes of Health. Reciprocal Social Interaction. Mice were placed in a 25×25×25 cm Plexiglass arena, to which they had not been previously habituated, with either a familiar (cage-mate) or stranger age- and sex-matched conspecific. In all experiments, paired mice were matched for maternal diet, colonization source, and/or treatment. We recorded the time a pair of mice engaged in social interaction (close following, touching, nose-to-nose sniffing, nose-to-anus sniffing, and/or crawling over/under each other). The human observer was blind to maternal diet and/or treatment group. Social behavior was analyzed with AnyMaze automated software. Lactobacillus reuteri MM4-1A (ATCC-PTA-6475) and Lactobacillus johnsonii (ATCC 33200) were cultured anaerobically in MRS broth in a 90% N2, 5% CO2, 5% H2 environment. L. reuteri was heat-killed by keeping the bacteria at 80° C. for 20 minutes (Wang et al., 2010). Bacterial viability was assessed by plating and the efficacy of the heat-kill procedure was confirmed by the absence of colony growth following plating. Cultures were centrifuged, washed, and resuspended in anaerobic solution (PBS) and frozen at −80° C. until use. PBS, live or heat-killed L. reuteri were added to the drinking water, which was changed daily to minimize dosage variability. Whereas the experimental group received live bacteria, one control group received identically prepared cultures of heat-killed bacteria. A second group of control mice received water treated with PBS alone. Live and heat-killed L. reuteri were supplied at a dosage of 1×10^8 organisms/mouse/day continuously in drinking water. Mice consumed the treated water ad libitum over the treatment period. The treated drinking water for each group was replaced daily two hours prior to the onset of the dark cycle to minimize variation in microbial exposure. Behavioral assays were initiated after 4-weeks of L. reuteri or control treatment. The protocol of the L. johnsonii preparation and administration matched the L. reuteri protocol. Fecal samples for sequencing and tissue used in the immunofluorescence studies were collected at the end of the treatment. Oxytocin was obtained from Tocris Bioscience (product 1910) and solubilized in 10% dimethyl sulfoxide (DMSO) in PBS. 10% DMSO in PBS was used as the vehicle control. Mice received oxytocin intranasally (at approximately 200 μg/kg) thirty minutes prior to behavior. 1.25 μl of oxytocin or vehicle solution was injected into each nostril from P10 pipette. Oxytocin dose was selected according to dosages reported to rescue social behavior in genetic models phenotypically expressing ASD-like behaviors (Penagarikano et al., 2015).

VTA DA neurons = test: Social interaction-induced LTP (AMPAR/NMDAR ratio) in VTA DA neurons of MHFD offspring; format: in vivo, mice; conditions: for stranger interaction-evoked LTP in the VTA (AMPAR/NMDAR ratio): bacteria in drinking water, 24 hours after 10 min reciprocal interaction
Source text: Brain regions responding to naturally rewarding stimuli, including the ventral tegmental area (VTA) and the nucleus accumbens (NAc), are crucially involved in social behaviors (Dolen et al., 2013; Gunaydin et al., 2014; Huang and Hessler, 2008). In addition, oxytocin-expressing neurons in the PVN project to the VTA (Melis et al., 2007). Oxytocin activates VTA neurons in both mice and humans, influencing the processing of socially relevant cues (Gregory et al., 2015; Groppe et al., 2013; Tang et al., 2014) and oxytocin receptor blockade in the VTA prevents social attachment in rodents (Pedersen et al., 1994). Given that social stimulation can be particularly rewarding and triggers synaptic potentiation in VTA DA neurons of birds (Huang and Hessler, 2008), it was considered whether direct social interaction evokes long-term potentiation (LTP) of synaptic inputs to VTA DA neurons (FIGS. 20A-20C). To this end, AMPAR/NMDAR ratios were recorded of glutamatergic excitatory postsynaptic currents (EPSCs) in MRD and MHFD offspring 24 hours following a 10 min reciprocal interaction with either a stranger or a familiar mouse (FIG. 5A). In control MRD mice, social interaction with a stranger, but not a familiar mouse, triggered LTP in VTA DA neurons, as determined by an increase in AMPAR/NMDAR ratios (FIGS. 5B and 5D).
Recordings were performed as previously described (Ungless et al., 2001; Zhu et al., 2011) and the investigators were kept blind to treatment conditions. Briefly, mice were anesthetized with a mixture of ketamine (100 mg/kg), xylazine (10 mg/kg) and acepromazine (3 mg/kg). Horizontal slices (225-300 μm thick) containing the VTA were cut from the brains of C57BL/6J mice. Mice were transcardially perfused with an ice-cold, oxygenated solution containing (in mM) NaCl, 87; NaHCO3, 25; KCl, 2.5; NaH2PO4, 1.25; MgCl2, 7; CaCl2, 0.5; dextrose, 25; sucrose, 75. […] Data were obtained with a MultiClamp 700B amplifier, digitized at 20 kHz with a Digidata 1440A, recorded by Clampex 10 and analyzed with Clampfit 10 software (Molecular Devices). […] After establishing a gigaohm seal (>2 GΩ) and recording stable spontaneous firing in cell-attached, voltage clamp mode (−70 mV holding potential), cell phenotype was determined by measuring the width of the action potential and the presence of an Ih current. AMPAR/NMDAR ratios were calculated as previously described (Ungless et al., 2001). […]

Compound | contact duration in reciprocal social interaction test (MHFD offspring; intranasal oxytocin) | interaction frequency in reciprocal social interaction test (MHFD offspring; intranasal oxytocin) | reciprocal social interaction (MHFD offspring; intranasal oxytocin approximately 200 μg/kg, 30 min prior) | reciprocal social interaction (MHFD offspring; intranasal oxytocin approximately 200 μg/kg, 30 min prior, listed as Oxytocin) | social interaction-induced LTP in the VTA (VTA DA neurons; intranasal oxytocin alone, without social interaction) | social interaction-induced LTP in the VTA (VTA DA neurons; intranasal oxytocin approximately 200 μg/kg combined with stranger social interaction) | reciprocal social interaction (MHFD offspring; bacteria in drinking water) | reciprocal social interaction (MHFD offspring; bacteria in drinking water, listed as live L. reuteri) | stranger interaction-evoked LTP in the VTA (AMPAR/NMDAR ratio) (VTA DA neurons) | stranger interaction-evoked LTP in the VTA (AMPAR/NMDAR ratio) (VTA DA neurons; listed as live L. reuteri)
CC[C@H](C)[C@@H]1NC(=O)[C@H](Cc2ccc(O)cc2)NC(=O)[C@@H](N)CSSC[C@@H](C(=O)N2CCC[C@H]2C(=O)N[C@@H](CC(C)C)C(=O)NCC(N)=O)NC(=O)[C@H](CC(N)=O)NC(=O)[C@H](CCC(N)=O)NC1=O [oxytocin] | improved MHFD offspring contact duration | improved | improved reciprocal social interaction | restored reciprocal social interaction | failed to rescue | restored LTP; also recorded: rescued LTP |  |  |  | 
Lactobacillus reuteri MM4-1A (ATCC-PTA-6475) [L. reuteri] |  |  |  |  |  |  | rescued | restored reciprocal social interaction | rescued stranger interaction-induced LTP | restored stranger interaction-evoked LTP
